Measured values from BindingDB's records for doi:10.1016/0960-894X(95)00327-P (1995).

Molecular target: Gastrin/cholecystokinin type B receptor (Cavia porcellus)
Assay: Binding activity towards cholecystokinin-B (CCK-B) receptor in guinea pig cortex

SMILES	IC50
CCS(=O)(=O)NC(=O)c1cccc(NC(=O)N[C@@H]2C[C@H](c3ccccc3)c3ccc(C)cc3N(CC(=O)NC(C)(C)C)C2=O)c1 [N-tert-Butyl-2-{(3R,5R)-3-[3-(3-ethanesulfonylaminocarbonyl-phenyl)-ureido]-8-methyl-2-oxo-5-phenyl-2,3,4,5-tetrahydro-benzo[b]azepin-1-yl}-acetamide]	1 nM
Cc1ccc2c(c1)N(CC(=O)NC(C)(C)C)C(=O)[C@H](NC(=O)Nc1cccc(C(=O)NS(=O)(=O)Cc3ccccc3)c1)C[C@@H]2c1ccccc1 [N-tert-Butyl-2-{(3R,5R)-8-methyl-2-oxo-5-phenyl-3-[3-(3-phenylmethanesulfonylaminocarbonyl-phenyl)-ureido]-2,3,4,5-tetrahydro-benzo[b]azepin-1-yl}-acetamide]	4.2 nM
COC(=O)c1cccc(NC(=O)N[C@@H]2C[C@H](C3CCCCC3)c3ccc(C)cc3N(CC(=O)NC(C)(C)C)C2=O)c1 [3-{3-[(3R,5R)-1-(tert-Butylcarbamoyl-methyl)-5-cyclohexyl-8-methyl-2-oxo-2,3,4,5-tetrahydro-1H-benzo[b]azepin-3-yl]-ureido}-benzoic acid methyl ester]	0.6 nM
Cc1ccc2c(c1)N(CC(=O)NC(C)(C)C)C(=O)[C@H](NC(=O)Nc1cccc(C(=O)NS(C)(=O)=O)c1)C[C@@H]2c1ccccc1 [N-tert-Butyl-2-{(3R,5R)-3-[3-(3-methanesulfonylaminocarbonyl-phenyl)-ureido]-8-methyl-2-oxo-5-phenyl-2,3,4,5-tetrahydro-benzo[b]azepin-1-yl}-acetamide]	0.88 nM
Cc1ccc2c(c1)N(CC(=O)NC(C)(C)C)C(=O)[C@H](NC(=O)Nc1cccc(C(=O)NS(C)(=O)=O)c1)C[C@@H]2C1CCCCC1 [N-tert-Butyl-2-{(3R,5R)-5-cyclohexyl-3-[3-(3-methanesulfonylaminocarbonyl-phenyl)-ureido]-8-methyl-2-oxo-2,3,4,5-tetrahydro-benzo[b]azepin-1-yl}-acetamide]	0.26 nM
Cc1ccc2c(c1)N(CC(=O)NC(C)(C)C)C(=O)[C@H](NC(=O)Nc1cccc(C(=O)NS(=O)(=O)C(F)(F)F)c1)C[C@@H]2c1ccccc1 [N-tert-Butyl-2-{(3R,5R)-8-methyl-2-oxo-5-phenyl-3-[3-(3-trifluoromethanesulfonylaminocarbonyl-phenyl)-ureido]-2,3,4,5-tetrahydro-benzo[b]azepin-1-yl}-acetamide]	5.1 nM
Cc1ccc2c(c1)N(CC(=O)NC(C)(C)C)C(=O)[C@H](NC(=O)Nc1cccc(-c3nnn[nH]3)c1)C[C@@H]2C(C)C [N-tert-Butyl-2-((3R,5R)-5-isopropyl-8-methyl-2-oxo-3-{3-[3-(1H-tetrazol-5-yl)-phenyl]-ureido}-2,3,4,5-tetrahydro-benzo[b]azepin-1-yl)-acetamide]	0.98 nM
Cc1ccc2c(c1)N(CC(=O)NC(C)(C)C)C(=O)[C@H](NC(=O)Nc1cccc(C(=O)NS(=O)(=O)c3ccccc3)c1)C[C@@H]2c1ccccc1 [2-{(3R,5R)-3-[3-(3-Benzenesulfonylaminocarbonyl-phenyl)-ureido]-8-methyl-2-oxo-5-phenyl-2,3,4,5-tetrahydro-benzo[b]azepin-1-yl}-N-tert-butyl-acetamide]	4.8 nM
Cc1ccc2c(c1)N(CC(=O)NC(C)(C)C)C(=O)[C@H](NC(=O)Nc1cccc(C(=O)NS(=O)(=O)c3ccccc3C)c1)C[C@@H]2c1ccccc1 [N-tert-Butyl-2-((3R,5R)-8-methyl-2-oxo-5-phenyl-3-{3-[3-(toluene-2-sulfonylaminocarbonyl)-phenyl]-ureido}-2,3,4,5-tetrahydro-benzo[b]azepin-1-yl)-acetamide]	7.9 nM
COC(=O)c1cccc(NC(=O)N[C@@H]2C[C@H](c3ccccc3)c3ccc(C)cc3N(CC(=O)NC(C)(C)C)C2=O)c1 [3-{3-[(3R,5R)-1-(tert-Butylcarbamoyl-methyl)-8-methyl-2-oxo-5-phenyl-2,3,4,5-tetrahydro-1H-benzo[b]azepin-3-yl]-ureido}-benzoic acid methyl ester]	1.4 nM
Cc1ccc2c(c1)N(CC(=O)NC(C)(C)C)C(=O)[C@H](NC(=O)Nc1cccc(-c3nnn[nH]3)c1)C[C@@H]2c1ccccc1 [N-tert-Butyl-2-((3R,5R)-8-methyl-2-oxo-5-phenyl-3-{3-[3-(1H-tetrazol-5-yl)-phenyl]-ureido}-2,3,4,5-tetrahydro-benzo[b]azepin-1-yl)-acetamide]	0.81 nM
Cc1ccc2c(c1)N(CC(=O)NC(C)(C)C)C(=O)[C@H](NC(=O)Nc1cccc(C(=O)O)c1)C[C@@H]2c1ccccc1 [3-{3-[(3R,5R)-1-(tert-Butylcarbamoyl-methyl)-8-methyl-2-oxo-5-phenyl-2,3,4,5-tetrahydro-1H-benzo[b]azepin-3-yl]-ureido}-benzoic acid]	2.7 nM
Cc1ccc2c(c1)N(CC(=O)NC(C)(C)C)C(=O)[C@H](NC(=O)Nc1cccc(-c3nnn[nH]3)c1)C[C@@H]2Cc1ccccc1 [2-((3R,5S)-5-Benzyl-8-methyl-2-oxo-3-{3-[3-(1H-tetrazol-5-yl)-phenyl]-ureido}-2,3,4,5-tetrahydro-benzo[b]azepin-1-yl)-N-tert-butyl-acetamide]	1.7 nM
Cc1ccc2c(c1)N(CC(=O)NC(C)(C)C)C(=O)[C@H](NC(=O)Nc1cccc(-c3nnn[nH]3)c1)C[C@@H]2C1CCCCC1 [N-tert-Butyl-2-((3R,5R)-5-cyclohexyl-8-methyl-2-oxo-3-{3-[3-(1H-tetrazol-5-yl)-phenyl]-ureido}-2,3,4,5-tetrahydro-benzo[b]azepin-1-yl)-acetamide]	0.22 nM

Molecular target: Gastrin/cholecystokinin type B receptor (Cavia porcellus)
Assay: as above
Remark: another data set of the same source

SMILES	IC50
Cc1ccc2c(c1)N(CC(=O)NC(C)(C)C)C(=O)[C@H](NC(=O)Nc1cccc(C(=O)O)c1)C[C@@H]2C1CCCCC1 [3-{3-[(3R,5R)-1-(tert-Butylcarbamoyl-methyl)-5-cyclohexyl-8-methyl-2-oxo-2,3,4,5-tetrahydro-1H-benzo[b]azepin-3-yl]-ureido}-benzoic acid]	0.1 nM
